Source: patent US20010049373A1, “Materials and methods for killing nematodes and nematode eggs” (priority 2000, published 2001)

Columns and labels:
[1] = test system: C. elegans; assay: C. elegans nematode activity assay, 2-fold dilutions from 140 μM, visual evaluation at Day 4 (Example 3); format: in vivo; design: key: Dead: only stiff L1s (no movement); Dead (L4): worms are dead, but at a later larval stage; majority of worms are L1 (based on size); majority of worms are L2 (based on size); majority of worms are L3 (based on size); majority of worms are L4 (based on size); AD: majority of worms are adult; #AD: 5 adult worms or less; B!: sterile (0-25 progeny); B: low broodsize (25-100 progeny); ˜B: moderate broodsize (100-250 progeny); <: reduced broodsize (250-500 progeny); OK: no effect (˜1000+ progeny)
[2] = test system: tomatoes or cucumbers; settings: rates of up to 10 kg/ha; cited from earlier work
[3] = test system: root-knot nematode, Meloidogyne incognita; settings: cited from earlier work
[4] = test system: Colorado potato beetle, potato tuberworm, beet armyworm, diamondback moth, gypsy moth, and the European corn borer; settings: cited from earlier work

O=C(NCC1CCN(C(=O)NCCC(c2ccccc2)c2ccccc2)CC1)c1cc(F)c(F)cc1F [AKC 116]
visual evaluation of viability ([1]; 1.09 μM): OK (no effect (˜1000+ progeny))
visual evaluation of viability ([1]; 2.2 μM): OK (no effect (˜1000+ progeny))
visual evaluation of viability ([1]; 4.4 μM): OK (no effect (˜1000+ progeny))
visual evaluation of viability ([1]; 8.8 μM): B (low broodsize (25-100 progeny))
visual evaluation of viability ([1]; 17.5 μM): B! (sterile (0-25 progeny))
visual evaluation of viability ([1]; 35 μM): L3

O=C(NCC1CCN(C(=O)NCCC(c2ccccc2)c2ccccc2)CC1)c1ccc(F)cc1F [AKC 117]
visual evaluation of viability ([1]; 1.09 μM): OK (no effect (˜1000+ progeny))
visual evaluation of viability ([1]; 2.2 μM): OK (no effect (˜1000+ progeny))
visual evaluation of viability ([1]; 4.4 μM): < (reduced broodsize (250-500 progeny))
visual evaluation of viability ([1]; 8.8 μM): B (low broodsize (25-100 progeny))
visual evaluation of viability ([1]; 17.5 μM): B! (sterile (0-25 progeny))
visual evaluation of viability ([1]; 35 μM): L3

O=C(NCC1CCN(C(=O)NCCC(c2ccccc2)c2ccccc2)CC1)c1cc(F)cc(F)c1 [AKC 118]
visual evaluation of viability ([1]; 1.09 μM): OK (no effect (˜1000+ progeny))
visual evaluation of viability ([1]; 2.2 μM): OK (no effect (˜1000+ progeny))
visual evaluation of viability ([1]; 4.4 μM): ˜B (moderate broodsize (100-250 progeny))
visual evaluation of viability ([1]; 8.8 μM): B (low broodsize (25-100 progeny))
visual evaluation of viability ([1]; 17.5 μM): L4/AD/B!
visual evaluation of viability ([1]; 35 μM): L3
visual evaluation of viability ([1]; 140 μM): L2

NCc1ccc(-c2ccccc2)cc1 [AKC 138]
visual evaluation of viability ([1]; 1.09 μM): OK (no effect (˜1000+ progeny))
visual evaluation of viability ([1]; 2.2 μM): OK (no effect (˜1000+ progeny))
visual evaluation of viability ([1]; 4.4 μM): OK (no effect (˜1000+ progeny))
visual evaluation of viability ([1]; 8.8 μM): ˜B (moderate broodsize (100-250 progeny))
visual evaluation of viability ([1]; 17.5 μM): L2
visual evaluation of viability ([1]; 35 μM): L1
visual evaluation of viability ([1]; 70 μM): L1
visual evaluation of viability ([1]; 140 μM): L1

Cc1ccc2c(Cl)cc(Cl)c(O)c2n1 [AKC 141]
visual evaluation of viability ([1]; 1.09 μM): OK (no effect (˜1000+ progeny))
visual evaluation of viability ([1]; 2.2 μM): OK (no effect (˜1000+ progeny))
visual evaluation of viability ([1]; 4.4 μM): OK (no effect (˜1000+ progeny))
visual evaluation of viability ([1]; 8.8 μM): OK (no effect (˜1000+ progeny))
visual evaluation of viability ([1]; 17.5 μM): < (reduced broodsize (250-500 progeny))
visual evaluation of viability ([1]; 35 μM): L1
visual evaluation of viability ([1]; 70 μM): L1
visual evaluation of viability ([1]; 140 μM): L1

CC[C@H](C)[C@H]1O[C@]2(CC(O)[C@@H]1C)C[C@@H]1C[C@@H](C/C=C(\C)[C@@H](OC3CC(OC)C(OC4CC(OC)C(O)C(C)O4)C(C)O3)[C@@H](C)/C=C/C=C3\CO[C@@H]4[C@H](O)C(C)=C[C@@H](C(=O)O1)[C@]34O)O2 (stereo partly drawn) [Avermectin B2a]
toxicity to tomatoes or cucumbers [2]: not toxic
activity against the root-knot nematode ([3]; Meloidogyne incognita): active
potency relative to commercial contact nematicides ([3]; incorporated into soil at 0.16-0.25 kg/ha): 10-30 times

Avermectin B1
effect on insect pests [4]: effective
